Measured values reported in patent US20250296916A1, “BICYCLIC PIPERAZINONES AND THERAPEUTIC USES THEREOF” (Cytokinetics, Inc., priority 2022, published 2025).

System: rabbit skeletal myofibrils (approximately 90% fast fibers)
Assay: Activation of fast skeletal myofibrils (PUMA coupled-enzyme ATPase assay)
Type: biochemical
Conditions: concentration at which the compound increased the enzymatic activity by 40%; calcium at pCa25; PM12 buffer pH 6.8
Protocol: Preparation of fast skeletal myofibrils: Rabbit skeletal myofibrils were prepared based upon the method of Herrmann et al. (Biochem. 32 (28): 7255-7263 (1993). Myofibrils were prepared from rabbit psoas muscle purchased from Pel-Freez Biologicals (Arkansas) within 2 days of ordering, stored on ice. Minced muscle was homogenized in 10 volumes of ice-cold “standard” buffer (50 mM Tris, pH 7.4, 0.1 M KOAc, 5 mM KCl, 2 mM dithiothreitol (DTT), 0.2 mM phenylmethylsulfonyl fluoride (PMSF), 10 μM leupeptin, 5 μM pepstatin, and 0.5 mM sodium azide) containing 5 mM ethylenediaminetetraacetic acid (EDTA) and 0.5% Triton X-100 using an Omni-Macro homogenizer. Myofibrils were recovered by low speed centrifugation (3000 rpm for 10 minutes) and washed 2 times in the Triton X-100 containing buffer to ensure removal of cellular membrane. Following the Triton washes, myofibrils were washed 3 times in “standard” buffer containing 2 mM magnesium acetate. A final wash in assay buffer (12 mM piperazine-1,4-bis(2-ethanesulfonic acid) (PIPES), pH 6.8, 60 mM KCl, 1 mM DTT) was performed and brought to 10% sucrose for flash freezing in liquid nitrogen and storage at −80° C.
Activation of Fast Skeletal Myofibrils: Fast fiber activators were identified by measuring the enzymatic activity of muscle myofibril preparations using the proprietary PUMA (trademark) (see, e.g., U.S. Pat. Nos. 6,410,254, 6,743,599, 7,202,051, and 7,378,254) assay system. Myofibril preparations consisted of rabbit skeletal muscle (approximately 90% fast fibers) that had been mechanically homogenized and washed with a detergent (Triton X-100) to remove cellular membranes. This preparation retained all of the sarcomeric components in a native conformation and the enzymatic activity was still regulated by calcium. Compounds were tested using a myofibril suspension and a level of calcium sufficient to increase enzymatic activity of the myofibrils to 25% of their maximal rate (termed pCa25). Enzymatic activity was tracked via a pyruvate kinase and lactate dehydrogenase-coupled enzyme system. This assay regenerates myosin-produced ADP into ATP by oxidizing NADH, producing an absorbance change at 340 nm. The buffering system was 12 mM PIPES, 2 mM MgCl2, 1 mM DTT at pH 6.8 (PM12 buffer). […] In Table 3, “Example Compound” refers to the compound labeled with the same number in Table 2.

SMILES | AC1.4 [µM]
CC[C@H](C)[C@H]1C(=O)Nc2ccccc2N1C(=O)c1ccc(=O)[nH]c1 [Compound 75, (S)-3-((S)-sec-butyl)-4-(6-oxo-1,6-dihydropyridine-3-carbonyl)-3,4-dihydroquinoxalin-2(1H)-one] | 0.05
CCC[C@H]1C(=O)Nc2ccccc2N1C(=O)c1cnn(C2CC2)c1 [Compound 76, (S)-4-(1-cyclopropyl-1H-pyrazole-4-carbonyl)-3-propyl-3,4-dihydroquinoxalin-2(1H)-one] | 0.47
CC[C@H](C)[C@H]1C(=O)Nc2ccccc2N1C(=O)c1cnn(CCO)c1 [Compound 78, (S)-3-((S)-sec-butyl)-4-(1-(2-hydroxyethyl)-1H-pyrazole-4-carbonyl)-3,4-dihydroquinoxalin-2(1H)-one] | 0.16
CC[C@H](C)[C@H]1C(=O)Nc2ccccc2N1C(=O)c1cc[nH]n1 [Compound 79, (S)-3-((S)-sec-butyl)-4-(1H-pyrazole-3-carbonyl)-3,4-dihydroquinoxalin-2(1H)-one] | 0.88
CC[C@H](C)[C@H]1C(=O)Nc2ccccc2N1C(=O)c1cnn(CC(N)=O)c1 [Compound 80, 2-(4-((S)-2-((S)-sec-butyl)-3-oxo-1,2,3,4-tetrahydroquinoxaline-1-carbonyl)-1H-pyrazol-1-yl)acetamide] | 0.63
CC(C)[C@H]1C(=O)Nc2ccccc2N1C(=O)c1ccc(=O)n(C)c1 [Compound 81, (S)-3-isopropyl-4-(1-methyl-6-oxo-1,6-dihydropyridine-3-carbonyl)-3,4-dihydroquinoxalin-2(1H)-one] | 0.22
CC(C)[C@H]1C(=O)Nc2ccccc2N1C(=O)c1cnc2[nH]ncc2c1 [Compound 83, (S)-3-isopropyl-4-(1H-pyrazolo[3,4-b]pyridine-5-carbonyl)-3,4-dihydroquinoxalin-2(1H)-one] | 0.06
CC(C)[C@H]1C(=O)Nc2ccccc2N1C(=O)c1cnn(C2CC2)c1 [Compound 84, (S)-4-(1-cyclopropyl-1H-pyrazole-4-carbonyl)-3-isopropyl-3,4-dihydroquinoxalin-2(1H)-one] | 0.29
CC(C)[C@H]1C(=O)Nc2ccccc2N1C(=O)c1ccc(=O)[nH]c1 [Compound 85, (S)-3-isopropyl-4-(6-oxo-1,6-dihydropyridine-3-carbonyl)-3,4-dihydroquinoxalin-2(1H)-one] | 0.15
CC(C)[C@H]1C(=O)Nc2ccccc2N1C(=O)c1cn[nH]c1 [Compound 86, (S)-3-isopropyl-4-(1H-pyrazole-4-carbonyl)-3,4-dihydroquinoxalin-2(1H)-one] | 0.2
CC[C@H](C)[C@H]1C(=O)Nc2cnccc2N1C(=O)c1ccc(=O)[nH]c1 [Compound 90, (S)-2-((S)-sec-butyl)-1-(6-oxo-1,6-dihydropyridine-3-carbonyl)-1,4-dihydropyrido[3,4-b]pyrazin-3(2H)-one] | 0.71
CC[C@H](C)[C@H]1C(=O)Nc2cnccc2N1C(=O)c1ccc(=O)n(C)c1 [Compound 91, (S)-2-((S)-sec-butyl)-1-(1-methyl-6-oxo-1,6-dihydropyridine-3-carbonyl)-1,4-dihydropyrido[3,4-b]pyrazin-3(2H)-one] | 0.72
CC[C@H](C)[C@H]1C(=O)Nc2cccnc2N1C(=O)c1cnn(C)c1 [Compound 93, (S)-3-((S)-sec-butyl)-4-(1-methyl-1H-pyrazole-4-carbonyl)-3,4-dihydropyrido[2,3-b]pyrazin-2(1H)-one] | 1.73
CC[C@H](C)[C@H]1C(=O)Nc2ncccc2N1C(=O)c1cnn(C)c1 [Compound 95, (S)-2-((S)-sec-butyl)-1-(1-methyl-1H-pyrazole-4-carbonyl)-1,4-dihydropyrido[2,3-b]pyrazin-3(2H)-one] | 0.84
CC[C@H](C)[C@H]1C(=O)Nc2ccccc2N1C(N)=O [Compound 99, (S)-2-((S)-sec-butyl)-3-oxo-3,4-dihydroquinoxaline-1(2H)-carboxamide] | 0.87
CC[C@H](C)[C@H]1C(=O)Nc2ccccc2N1C(=O)NC [Compound 102, (S)-2-((S)-sec-butyl)-N-methyl-3-oxo-3,4-dihydroquinoxaline-1(2H)-carboxamide] | 0.94
CC[C@H](C)[C@H]1C(=O)Nc2ccccc2N1C(=O)N1CCCC1 [Compound 104, (S)-3-((S)-sec-butyl)-4-(pyrrolidine-1-carbonyl)-3,4-dihydroquinoxalin-2(1H)-one] | 1.31
CC[C@H](C)[C@H]1C(=O)Nc2ccccc2N1C(=O)N1CC[C@H](O)C1 [Compound 106, (S)-3-((S)-sec-butyl)-4-((S)-3-hydroxypyrrolidine-1-carbonyl)-3,4-dihydroquinoxalin-2(1H)-one] | 1.77

Continued, values first:

AC1.4 [µM] | SMILES
0.08 | CC[C@H](C)[C@H]1C(=O)Nc2ccccc2N1C(=O)c1ccc(N)nc1 [Compound 74, (S)-4-(6-aminonicotinoyl)-3-((S)-sec-butyl)-3,4-dihydroquinoxalin-2(1H)-one]
0.08 | CC(C)[C@H]1C(=O)Nc2ccccc2N1C(=O)c1cnn(C)c1 [Compound 77, (S)-3-isopropyl-4-(1-methyl-1H-pyrazole-4-carbonyl)-3,4-dihydroquinoxalin-2(1H)-one]
0.26 | CC(C)[C@H]1C(=O)Nc2ccccc2N1C(=O)c1ccc(N)nc1 [Compound 82, (S)-4-(6-aminonicotinoyl)-3-isopropyl-3,4-dihydroquinoxalin-2(1H)-one]
2.15 | CC(C)[C@H]1C(=O)Nc2cccnc2N1C(=O)c1ccc(=O)n(C)c1 [Compound 87, (S)-3-isopropyl-4-(1-methyl-6-oxo-1,6-dihydropyridine-3-carbonyl)-3,4-dihydropyrido[2,3-b]pyrazin-2(1H)-one]
1.03 | CC[C@H](C)[C@H]1C(=O)Nc2cccnc2N1C(=O)c1ccc(=O)n(C)c1 [Compound 92, (S)-3-((S)-sec-Butyl)-4-(1-methyl-6-oxo-1,6-dihydropyridine-3-carbonyl)-3,4-dihydropyrido[2,3-b]pyrazin-2(1H)-one]
1.66 | CC[C@H](C)[C@H]1C(=O)Nc2cncnc2N1C(=O)c1cnn(C)c1 [Compound 94, (S)-7-((S)-sec-butyl)-8-(1-methyl-1H-pyrazole-4-carbonyl)-7,8-dihydropteridin-6(5H)-one]
0.6 | CC(C)C[C@H]1C(=O)Nc2cnccc2N1C(=O)c1cnn(C)c1 [Compound 96, (S)-2-isobutyl-1-(1-methyl-1H-pyrazole-4-carbonyl)-1,4-dihydropyrido[3,4-b]pyrazin-3(2H)-one]
0.28 | CC[C@H](C)[C@H]1C(=O)Nc2cnccc2N1C(=O)c1ccccc1 [Compound 97, (S)-1-benzoyl-2-((S)-sec-butyl)-1,4-dihydropyrido[3,4-b]pyrazin-3(2H)-one]
0.13 | CC[C@H](C)[C@H]1C(=O)Nc2cnccc2N1C(=O)c1cccc(C)c1 [Compound 98, (S)-2-((S)-sec-butyl)-1-(3-methylbenzoyl)-1,4-dihydropyrido[3,4-b]pyrazin-3(2H)-one]
1.58 | CC[C@H](C)[C@H]1C(=O)Nc2c(F)cccc2N1C(N)=O [Compound 100, (S)-2-((S)-sec-Butyl)-5-fluoro-3-oxo-3,4-dihydroquinoxaline-1(2H)-carboxamide]
2.1 | CC[C@H](C)[C@H]1C(=O)Nc2ccccc2N1C(=O)N1CC(O)C1 [Compound 101, (S)-3-((S)-sec-butyl)-4-(3-hydroxyazetidine-1-carbonyl)-3,4-dihydroquinoxalin-2(1H)-one]
0.78 | CCNC(=O)N1c2ccccc2NC(=O)[C@@H]1[C@@H](C)CC [Compound 103, (S)-2-((S)-sec-butyl)-N-ethyl-3-oxo-3,4-dihydroquinoxaline-1(2H)-carboxamide]
2.23 | CC[C@H](C)[C@H]1C(=O)Nc2ccccc2N1C(=O)NCCO [Compound 105, (S)-2-((S)-sec-butyl)-N-(2-hydroxyethyl)-3-oxo-3,4-dihydroquinoxaline-1(2H)-carboxamide]
0.44 | CC[C@H](C)[C@H]1C(=O)Nc2ccccc2N1C(=O)N1CC[C@H](CO)C1 [Compound 107, (S)-3-((S)-sec-butyl)-4-((S)-3-(hydroxymethyl)pyrrolidine-1-carbonyl)-3,4-dihydroquinoxalin-2(1H)-one]
2.77 | CC[C@H](C)[C@H]1C(=O)Nc2ccccc2N1C(=O)N1CC[C@@H](CO)C1 [Compound 108, (S)-3-((S)-sec-butyl)-4-((R)-3-(hydroxymethyl)pyrrolidine-1-carbonyl)-3,4-dihydroquinoxalin-2(1H)-one]
